How the values were obtained:
NDM-1 = NDM-1 (Klebsiella pneumoniae, UniProt C7C422)
Experimental: 24h at 37 °C. Cells were recovered by centrifugation (4,500 rpm, 4 °C, 20 min) and resuspended in
200 mL of buffer A (10 mM Hepes, 0.15 M NaCl, pH7.5). The cells were lyzed by sonication
(Sonopuls HD-2200) and the cell debris removed by centrifugation (12,000 rpm, 4 °C, 30 min) in
the presence of Protease Inhibitor Complete (Roche). The clarified sample was loaded onto a 5mL
HisTrap Fast Flow column (GE Healthcare). The protein was eluted with imidazole (350 mM in
buffer A) The active fractions were pooled, concentrated by ultrafiltration (Amicon Ultra 15, MW
cut-off, 10 kDa), desalted (Hi Prep 26/10 Desalting) in buffer B (20mM triethanolamine, 50 µM
ZnSO4, pH 7.2) to remove imidazole. β -lactamase activity was monitored using the hydrolysis rate
The authenticity and purity of the final protein sample was confirmed by

VIM-2 = VIM-2 (Escherichia coli, UniProt Q5U7L7)
Text: VIM-2. The VIM-2 metallo-β-lactamase was purified from a 2 L culture of BL21-DE3/pET9-VIM-
2 as previously described3. Briefly, the protein was purified from the culture supernatant,
concentrated by ultrafiltration, and purified using two anion exchange chromatography steps,
followed by a final gel filtration step, as described. β-lactamase activity was monitored using the
The authenticity and purity of the final protein sample was
confirmed by ESI-MS and SDS-PAGE.
Protein purification methods and kinetic profile characterization details: the Table reports the
step-by-step purification procedure for each β-lactamase protein, indicating the β-lactam substrate
used for kinetic profile characterization (kcat, Km and specificity constant evaluation) and the
proper concentration of enzyme used in the assay for each BL class.

Sequence of NDM-1 (C7C422 29-270 limits assumed): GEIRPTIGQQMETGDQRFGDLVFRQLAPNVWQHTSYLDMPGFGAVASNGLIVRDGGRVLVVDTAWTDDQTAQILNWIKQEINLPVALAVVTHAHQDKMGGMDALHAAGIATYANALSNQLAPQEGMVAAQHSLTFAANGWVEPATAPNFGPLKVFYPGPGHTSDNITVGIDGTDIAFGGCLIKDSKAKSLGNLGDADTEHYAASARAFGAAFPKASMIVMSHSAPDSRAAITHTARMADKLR

With `C[C@@H](O)[C@H]1C(=O)N2C(C(=O)O)=C(SCCN=CN)C[C@H]12` [Imipenem, imipenem] the kcat (NDM-1; β-lactam substrate of NDM-1) was 520 ± 84 s⁻¹, the Km (NDM-1; β-lactam substrate of NDM-1, enzyme 0.021 µM) was 58 ± 6 µM and the kcat (VIM-2; β-lactam substrate of VIM-2) was 8 ± 2 s⁻¹. For the same compound, the Km (VIM-2; β-lactam substrate of VIM-2, enzyme 0.043 µM) was 11 ± 3 µM.

Source: PMC5735191, “Computational and biological profile of boronic acids for the detection of bacterial serine- and metallo-β-lactamases” (Scientific Reports, 2017)
